The record followed here is patent US5019574A, “3,4-diaminoquinoline and 3,4-diamino-5,6,7,8-tetrahydroquinoline compounds useful for improving psychoneural function” (Chugai Seiyaku Kabushiki Kaisha, priority 1988, dated 1991).

One experiment has as its target T1, acetylcholinesterase (Electrophorus electricus, UniProt O42275).
T1 construct: purchased Sigma C-2888
Description: Inhibition of acetylcholinesterase activity. Format: biochemical. To be noted: activity without drug compound taken as 100, average of three measurements, read-out: Inhibition rate (%). The protocol:
Inhibition of Acetylcholinesterase Activity:
Acetylcholinesterase activity was assayed in accordance with the method of S. H. Sterri and F. Fonnum described in European Journal of Biochemistry, 91: 215-222, 1978. The method consisted of incubating 0.5 μU of authentic acetylcholinesterase ([…]) (Sigma, No. C-2888) at 30° C. for 15 minutes in a 20 mM sodium phosphate buffer (pH 7.4). with 1.3 mM [1^-14 C] acetylcholine (0.025 μCi) being used as a substrate. Selected compounds of the general formula (I) were added at a concentration of 1 μM to the reaction solution and the resulting effect on enzymatic activity was evaluated.
The result was obtained as the average of three measurements and shown in Table 2 in terms of percentage, with the activity for the case where no drum compound was added being taken as 100.

Experiment [1] has as its system norepinephrine uptake into the synaptosomes. Description: Inhibition of catecholamine uptake: 3H-norepinephrine uptake into synaptosomes. It counts as biochemical, rats (F344/Crj). As to conditions: 1 μM; norepinephrine uptake in the absence of drug compounds taken as 100. The protocol:
(§1) Inhibition of Catecholamine Uptake:
(§2) A crude synaptosomal fraction (P2) was obtained from the brain of rats (F344/Crj) in the usual manner. In accordance with the method of S. H. Snyder and J. T. Coyle described in Journal of Pharmacology and Experimental Therapeutics, 165(1), 78-86, 1969, the fraction P2 was incubated in a Krebs-Henseleit bicarbonate buffer solution at 37° C. for 10 minutes together with 50 nM ^3 H-norepinephrine (0.25 jμCi). Thereafter, the uptake of norepinephrine into the synaptosomes was measured by the filtration method. Selected compounds were added at a concentration of 1 μM to the solution being incubated and their effect on norepinephrine uptake was examined. The control drug was tetrahydroaminoacridine (THA).
The results are shown in Table 3 in terms of percentage, with norepinephrine uptake in the absence of drug compounds being taken as 100.

In another experiment the test system is male ICR mice. Put plainly: Improvement of memory and learning ability tested by passive avoidance response. It counts as in vivo. As to conditions: dose 10 (μg/kg i.p.); retention trial 24 hours after acquisition trial. The procedure: Improvement of memory and Learning Ability Tested by Passive Avoidance Response:
Four groups of male ICR mice (10-14 weeks old). each consisting of 10 animals, were used in the experiment. Except for one control group, the mice were administered with selected compounds of the present invention. The experimental chamber consisted of a light and a dark compartment and an electric current shock source was connected to the floor grid in the dark compartment.
The experimental sessions consisted of acclimation. acquisition, and retention trials and were performed for […], one trial per day. In the acclimation trial, animals were placed in the light compartment of the experimental chamber and left there for 5 minutes to acclimate them to the apparatus. In the acquisition trial which was conducted on the 2nd day, the animals were placed in the light compartment and when they entered the dark compartment, they were confined and given an a.c. electric shock (1 mA) through the floor grid for 10 seconds. In the retention trial which was conducted 24 hours after the acquisition trial, the animals were placed in the light compartment of the chamber and the step-through latency (i.e., the time required for the animals to enter the dark compartment) was measured. A physiological saline solution was administered at the acclimation trial to all of the animals. At the acquisition trial, selected compounds were administered in amounts of 10 μg/kg of body weight (1 ml/100 g). The control group was administered the same amount of physiological saline solution 60 minutes before the start of the trial. All administrations were intraperitoneal.

The test system of experiment [2] is uptake of dopamine into synaptosomes. Description: Inhibition of catecholamine uptake: 3H-dopamine uptake into synaptosomes. Format: biochemical, rats (F344/Crj). As to conditions: 1 μM; dopamine uptake in the absence of drugs taken as 100. The protocol:
as §2, §1
The uptake of dopamine into synaptosomes was measured by repeating the procedure of Test Example 2 except that 50 nM ^3 H-norepinephrine (0.25 μCi) was replaced by 15 nM ^3 H-dopamine (0.68 μCi). The control drug was tetrahydroaminoacridine (THA). The result is shown in Table 5 in terms of percentage, with dopamine uptake in the absence of drugs being taken as 100.

For another experiment, the target named is T2, MAO-A (Rattus norvegicus, UniProt P21396).
T2 construct: A crude synaptosomal fraction (P2) was obtained from the brain of rats (F344/Crj); from tissue; host or cells: rat (F344/Crj) brain, crude synaptosomal fraction (P2), homogenized
T2 sequence (P21396 1-526): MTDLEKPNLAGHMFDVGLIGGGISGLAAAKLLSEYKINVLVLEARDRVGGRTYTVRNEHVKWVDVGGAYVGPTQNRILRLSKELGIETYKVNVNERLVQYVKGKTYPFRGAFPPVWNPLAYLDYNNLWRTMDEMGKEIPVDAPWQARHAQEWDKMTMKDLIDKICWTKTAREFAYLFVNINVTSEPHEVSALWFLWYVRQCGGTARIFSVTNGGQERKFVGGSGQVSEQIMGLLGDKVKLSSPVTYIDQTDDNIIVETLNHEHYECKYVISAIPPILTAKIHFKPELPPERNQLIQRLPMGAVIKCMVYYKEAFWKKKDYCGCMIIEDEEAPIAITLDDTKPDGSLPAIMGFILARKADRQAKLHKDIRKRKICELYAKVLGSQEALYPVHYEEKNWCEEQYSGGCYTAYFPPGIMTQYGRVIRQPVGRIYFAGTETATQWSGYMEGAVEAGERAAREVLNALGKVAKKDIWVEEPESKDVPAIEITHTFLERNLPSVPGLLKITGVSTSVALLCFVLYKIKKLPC
Put plainly: Inhibition of monoamine oxidase: MAO-A. To be noted: 10 μM; 12 μM [14C]-serotonin substrate; None = 100; read-out: Inhibition rate (%) MAO-A. Format: biochemical, rats (F344/Crj). The protocol:
(§3) Inhibition of Monoamine Oxidase (MAO):
(§4) A crude synaptosomal fraction (P2) was obtained from the brain of rats (F344/Crj) in the usual manner and homogenized to perform MAO activity measurements. The substrate was 12 μM [^14 C]-serotonin in the case of MAO-A activity measurements, and 5 μM [^14 C]-2-phenethylamine in the case of MAO-B activity measurements. In accordance with the method of R. J. Wurtman and J. Axelrod described in Biochemical Pharmacol. 12, […], 1963, the homogenates were incubated in 100 mM phosphate buffer (pH 7.4) at 37° C. for 20 minutes and the effect of adding selected compounds at a concentration of 10 μM was evaluated.

A further experiment deals with T3, MAO-B (Rattus norvegicus, UniProt P19643).
T3 construct: A crude synaptosomal fraction (P2) was obtained from the brain of rats (F344/Crj); from tissue; host or cells: rat (F344/Crj) brain, crude synaptosomal fraction (P2), homogenized
T3 sequence (P19643 1-520): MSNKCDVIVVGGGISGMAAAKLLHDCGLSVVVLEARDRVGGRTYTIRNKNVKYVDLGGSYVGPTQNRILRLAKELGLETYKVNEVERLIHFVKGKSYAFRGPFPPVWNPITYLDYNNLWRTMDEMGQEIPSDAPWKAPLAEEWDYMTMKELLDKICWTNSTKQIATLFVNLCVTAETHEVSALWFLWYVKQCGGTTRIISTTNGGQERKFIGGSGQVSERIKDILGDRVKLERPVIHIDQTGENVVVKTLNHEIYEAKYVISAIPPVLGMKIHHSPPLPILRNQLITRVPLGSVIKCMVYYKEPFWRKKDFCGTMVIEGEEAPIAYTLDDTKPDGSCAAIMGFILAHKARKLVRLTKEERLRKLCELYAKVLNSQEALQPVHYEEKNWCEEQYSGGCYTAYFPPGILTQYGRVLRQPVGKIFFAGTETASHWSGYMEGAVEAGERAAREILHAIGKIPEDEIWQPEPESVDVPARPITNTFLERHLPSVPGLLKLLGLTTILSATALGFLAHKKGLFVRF
Description: Inhibition of monoamine oxidase: MAO-B. It counts as biochemical, rats (F344/Crj). As to conditions: 10 μM; 5 μM [14C]-2-phenethylamine substrate; None = 100; read-out: Inhibition rate (%) MAO-B. The procedure:
as §3, §4

T1 sequence (O42275 24-633): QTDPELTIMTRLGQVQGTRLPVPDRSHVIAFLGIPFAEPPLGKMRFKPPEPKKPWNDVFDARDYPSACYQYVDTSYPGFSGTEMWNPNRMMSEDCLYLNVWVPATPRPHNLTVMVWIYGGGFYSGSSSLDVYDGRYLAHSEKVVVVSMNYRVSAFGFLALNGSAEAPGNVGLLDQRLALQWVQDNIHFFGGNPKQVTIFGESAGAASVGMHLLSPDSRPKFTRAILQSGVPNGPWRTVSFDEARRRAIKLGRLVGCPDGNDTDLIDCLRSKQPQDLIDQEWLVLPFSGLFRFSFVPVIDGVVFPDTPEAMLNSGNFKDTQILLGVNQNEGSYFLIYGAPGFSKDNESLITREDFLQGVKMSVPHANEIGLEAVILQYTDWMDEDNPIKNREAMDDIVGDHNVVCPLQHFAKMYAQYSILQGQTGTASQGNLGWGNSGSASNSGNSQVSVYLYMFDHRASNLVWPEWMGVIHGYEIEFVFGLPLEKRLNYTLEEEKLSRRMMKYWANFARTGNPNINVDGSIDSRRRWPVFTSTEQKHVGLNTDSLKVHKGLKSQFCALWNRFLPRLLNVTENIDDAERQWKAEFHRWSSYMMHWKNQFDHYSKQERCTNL

For the compound `Nc1c(N2CCCCC2)c(Nc2ccccc2)nc2ccccc12` [Compound 35], on acetylcholinesterase, the inhibition at 1 µM came out at 28.3%.
Consider `Nc1c(N2CCCCC2)cnc2ccccc12` [Compound 1, 4-amino-3-piperidinoquinoline], for which, in experiment [1], the “Inhibition rate (%)” value was 69.1%.
As to `CCCC(C)c1nc2ccccc2c(N)c1N1CCOCC1` (centres unmarked) [Compound 39], the “Inhibition rate (%)” value in experiment [1] amounted to 71.9%. Moreover, the “Step through latency” value with male ICR mice came out at 108.3 ± 16.0 s.
As to `Nc1c2c(nc(Nc3ccccc3)c1N1CCOCC1)CCCC2` [Compound 15, 4-amino-2-anilino-3-morpholino-5,6,7,8-tetrahydroquinoline], on acetylcholinesterase, the inhibition at 1 µM amounted to 37.2%. Moreover, the “Inhibition rate (%)” value in experiment [1] amounted to 85.4%. Also, in the experiment with male ICR mice, the “Step through latency” value amounted to 80.4 ± 14.6 s.
Regarding `CCOc1nc2ccccc2c(N)c1N1CCCCC1` [Compound 44], in the experiment with male ICR mice, the “Step through latency” value was 90.4 ± 12.4 s.
The same measure, in the same setting: to `Nc1ccnc(C2CCCCC2=O)c1N1CCCCC1` (centres unmarked) [Compound 50] belongs 83.4 ± 14.8 s.
`CCN(CC)c1c(NC2CCCCC2)nc2c(c1N)CCCC2` [Compound 34]: the “Inhibition rate (%)” value in experiment [1] is 80.0%; in experiment [2] it was 84.8%.
`CCCN(CCC)c1c(C2CCCCC2)nc2c(c1N)CCCC2` [Compound 32]: the inhibition at 1 µM at acetylcholinesterase stood at 28.7%. In addition, the “Inhibition rate (%)” value is 73.2% in experiment [1] and 71.0% in experiment [2]. Moreover, in the experiment on male ICR mice, the “Step through latency” value is 109.7 ± 16.6 s.
On to `CCN(CC)c1c(C2CCCCC2)nc2c(c1N)CCCC2` [Compound 25], for which the inhibition at 1 µM at acetylcholinesterase was determined as 30.1%. For the same compound, the “Inhibition rate (%)” value in experiment [1] was 75.3%; in experiment [2], 76.4%.
In the case of `Nc1c2c(nc(NC3CCCCC3)c1N1CCOCC1)CCCC2` [Compound 16], the inhibition at 1 µM at acetylcholinesterase worked out at 25.9%. Besides, the “Inhibition rate (%)” value in experiment [1] stood at 88.1%. The “Step through latency” value with male ICR mice was determined as 102.1 ± 22.3 s.
With `Nc1c(N2CCCCC2)c(C2CCCCC2)nc2ccccc12` [Compound 26], the “Inhibition rate (%)” value is given as 68.2% in experiment [1] and 55.4% in experiment [2].
As to `Nc1c(N2CCOCC2)c(Nc2ccccc2)nc2ccccc12` [Compound 13, 4-amino-2-anilino-3-morpholinoquinoline], in the experiment on male ICR mice, the “Step through latency” value is 100.2 ± 17.8 s.
As to `Nc1c2c(nc(C3CCCCC3)c1N1CCCCC1)CCCC2` [Compound 28], on acetylcholinesterase, the inhibition at 1 µM worked out at 22.2%. For the same compound, the “Inhibition rate (%)” value in experiment [1] is on record as 85.2%; in experiment [2] it was 80.5%.
`Nc1c(N2CCOCC2)c(C2CCCCC2)nc2ccccc12` [Compound 18, 4-amino-2-cyclohexyl-3-morpholinoquinoline]: the “Step through latency” value in the experiment on male ICR mice is 116.4 ± 29.2 s.
With `CCN(CC)c1c(C2CCCCC2=O)nc2ccccc2c1N` (centres unmarked) [Compound 22], in the experiment with male ICR mice, the “Step through latency” value stood at 144.8 ± 25.5 s.
With `Nc1c2c(nc(C3CCCCC3)c1N1CCOCC1)CCCC2` [Compound 19, 4-amino-2-cyclohexyl-3-morpholino-5,6,7,8-tetrahydroquinoline], the inhibition at 1 µM at acetylcholinesterase was found to be 21.8%. Also, in experiment [1], the “Inhibition rate (%)” value was 83.2%. Moreover, the “Step through latency” value in the experiment with male ICR mice amounted to 107.1 ± 29.9 s.
Regarding `Nc1c(N2CCCCC2)cnc2ccccc12` [drawing 149], the inhibition at 10 µM at MAO-A is 44.1%; at MAO-B, 82.9%.
`CCN(CC)c1c(C2CCCCC2O)nc2c(c1N)CCCC2` (centres unmarked) [Compound 23]: the “Inhibition rate (%)” value is listed as 73.7% in experiment [1] and 83.0% in experiment [2].
As for `CCNc1nc2ccccc2c(N)c1N1CCOCC1` [Compound 43, 4-amino-2-ethylamino-3-morpholinoquinoline], the “Inhibition rate (%)” value in experiment [1] was 78.8%. In addition, the “Step through latency” value in the experiment with male ICR mice came out at 109.1 ± 13.4 s.
On to `CN1CCN(c2cnc3ccccc3c2N)CC1` [Compound 2], for which, at acetylcholinesterase, the inhibition at 1 µM is 27.1%. Also, in the experiment on male ICR mice, the “Step through latency” value is 92.1 ± 13.5 s.
With `CCNc1nc2ccccc2c(N)c1N1CCCCC1` [Compound 45], the “Inhibition rate (%)” value came out at 79.8% in experiment [1] and 82.3% in experiment [2]. Besides, the “Step through latency” value in the experiment with male ICR mice was 70.7 ± 6.8 s.
On to `Nc1c2c(nc(C3CCCCC3O)c1N1CCOCC1)CCCC2` (centres unmarked) [Compound 6, 4-amino-g-(2.-hydroxycyclohexyl)-3-morpholino-5,6,7,8-tetrahydroquinoline], for which the inhibition at 1 µM on acetylcholinesterase was 36.9%. In experiment [1], the “Inhibition rate (%)” value came to 82.6%. In the experiment on male ICR mice, the “Step through latency” value was 144.8 ± 45.1 s.
Take `CCCC(C)c1nc2c(c(N)c1N1CCOCC1)CCCC2` (centres unmarked) [Compound 40]: the “Step through latency” value with male ICR mice amounted to 113.1 ± 29.6 s.
In the case of `CCN(CC)c1c(C2CCCCC2)nc2ccccc2c1N` [Compound 24], the “Inhibition rate (%)” value is 68.2% in experiment [1] and 59.6% in experiment [2]. Besides, in the experiment with male ICR mice, the “Step through latency” value was 94.2 ± 14.7 s.
In the case of `Nc1c2c(nc(C3CCCCC3=O)c1N1CCOCC1)CCCC2` (centres unmarked) [Compound 41], the inhibition at 1 µM on acetylcholinesterase stood at 4.2%.
On to `CCCN(CCC)c1c(C2CCCCC2O)nc2c(c1N)CCCC2` (centres unmarked) [Compound 30], for which the results for the “Inhibition rate (%)” value in experiment [1] and in experiment [2] were 76.9% and 79.2%, respectively.
